According to patent US20100137449A1, “SUBSTITUTED 1,3-CYCLOPENTADIONE MULTI-TARGET PROTEIN KINASE MODULATORS OF CANCER, ANGIOGENESIS AND THE INFLAMMATORY PATHWAYS ASSOCIATED THEREWITH” (METAPROTEOMICS, LLC, priority 2007, published 2010):

Legend:
Assay in all cases: KinaseProfiler Assay
[1] = target: Abl(Q252H)(h) (Homo sapiens, UniProt P00519, Q252H)
[2] = target: CK1(y)
[3] = target: Fer(h) (Homo sapiens, UniProt P16591)
[4] = target: Lyn(m) (Mus musculus, UniProt P25911)
[5] = target: T1, PhKγ2(h) (Homo sapiens, UniProt P15735)
T1 sequence (P15735 1-406): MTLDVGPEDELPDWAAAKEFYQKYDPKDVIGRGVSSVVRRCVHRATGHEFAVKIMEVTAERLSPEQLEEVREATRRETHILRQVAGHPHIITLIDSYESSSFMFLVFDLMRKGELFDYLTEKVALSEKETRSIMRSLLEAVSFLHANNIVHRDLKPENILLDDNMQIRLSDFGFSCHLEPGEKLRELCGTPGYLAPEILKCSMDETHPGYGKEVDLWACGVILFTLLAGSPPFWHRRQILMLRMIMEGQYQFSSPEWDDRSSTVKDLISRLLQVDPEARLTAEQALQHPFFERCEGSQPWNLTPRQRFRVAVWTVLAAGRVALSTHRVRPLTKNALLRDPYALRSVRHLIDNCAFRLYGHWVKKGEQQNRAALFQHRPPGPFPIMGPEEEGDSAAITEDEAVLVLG

[6] = target: PI 3-Kinaseδ(h)
[7] = target: Ret(h) (Homo sapiens, UniProt P07949)
[8] = target: Rsk2(h) (Homo sapiens, UniProt P51812)
[9] = target: T2, TBK1(h) (Homo sapiens, UniProt Q9UHD2)
T2 sequence (Q9UHD2 1-729): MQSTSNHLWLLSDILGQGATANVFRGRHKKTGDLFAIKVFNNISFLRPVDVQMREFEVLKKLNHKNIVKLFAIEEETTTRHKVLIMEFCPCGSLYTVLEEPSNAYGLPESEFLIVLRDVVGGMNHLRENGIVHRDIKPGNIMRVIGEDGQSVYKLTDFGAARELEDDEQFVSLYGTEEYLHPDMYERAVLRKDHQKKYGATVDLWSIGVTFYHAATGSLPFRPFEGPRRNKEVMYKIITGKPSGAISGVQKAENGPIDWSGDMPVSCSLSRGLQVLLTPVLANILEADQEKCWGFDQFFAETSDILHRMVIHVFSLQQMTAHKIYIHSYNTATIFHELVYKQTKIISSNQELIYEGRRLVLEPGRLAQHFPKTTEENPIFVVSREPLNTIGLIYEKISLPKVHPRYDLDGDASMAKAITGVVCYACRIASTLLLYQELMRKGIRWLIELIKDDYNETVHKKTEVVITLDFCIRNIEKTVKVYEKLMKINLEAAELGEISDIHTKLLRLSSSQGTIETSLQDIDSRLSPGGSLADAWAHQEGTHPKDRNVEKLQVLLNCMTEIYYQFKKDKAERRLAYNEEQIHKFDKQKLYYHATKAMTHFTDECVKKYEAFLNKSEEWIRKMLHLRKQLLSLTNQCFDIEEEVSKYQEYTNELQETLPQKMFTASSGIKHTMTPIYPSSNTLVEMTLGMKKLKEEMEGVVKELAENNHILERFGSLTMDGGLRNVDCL

Fer(h), sequence (P16591 whole entry): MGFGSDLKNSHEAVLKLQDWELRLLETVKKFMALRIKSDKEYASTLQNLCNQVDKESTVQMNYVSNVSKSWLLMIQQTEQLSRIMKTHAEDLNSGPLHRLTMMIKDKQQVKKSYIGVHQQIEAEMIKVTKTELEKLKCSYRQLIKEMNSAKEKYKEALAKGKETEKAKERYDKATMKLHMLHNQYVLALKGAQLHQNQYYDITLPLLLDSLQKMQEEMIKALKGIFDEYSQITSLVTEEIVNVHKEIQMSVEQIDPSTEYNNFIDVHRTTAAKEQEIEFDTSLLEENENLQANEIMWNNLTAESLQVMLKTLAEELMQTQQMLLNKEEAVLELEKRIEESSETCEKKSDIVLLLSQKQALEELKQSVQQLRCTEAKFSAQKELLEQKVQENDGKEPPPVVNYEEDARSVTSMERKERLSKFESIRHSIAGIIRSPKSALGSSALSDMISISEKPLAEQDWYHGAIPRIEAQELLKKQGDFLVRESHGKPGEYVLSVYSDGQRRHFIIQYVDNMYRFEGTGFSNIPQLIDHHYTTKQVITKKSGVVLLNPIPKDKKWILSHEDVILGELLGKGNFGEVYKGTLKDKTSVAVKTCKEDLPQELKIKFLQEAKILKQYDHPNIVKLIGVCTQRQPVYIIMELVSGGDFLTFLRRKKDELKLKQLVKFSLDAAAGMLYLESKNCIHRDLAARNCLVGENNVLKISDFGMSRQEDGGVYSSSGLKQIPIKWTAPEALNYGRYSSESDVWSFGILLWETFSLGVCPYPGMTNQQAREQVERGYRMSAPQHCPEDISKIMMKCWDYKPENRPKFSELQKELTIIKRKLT
Lyn(m), sequence (P25911 whole entry): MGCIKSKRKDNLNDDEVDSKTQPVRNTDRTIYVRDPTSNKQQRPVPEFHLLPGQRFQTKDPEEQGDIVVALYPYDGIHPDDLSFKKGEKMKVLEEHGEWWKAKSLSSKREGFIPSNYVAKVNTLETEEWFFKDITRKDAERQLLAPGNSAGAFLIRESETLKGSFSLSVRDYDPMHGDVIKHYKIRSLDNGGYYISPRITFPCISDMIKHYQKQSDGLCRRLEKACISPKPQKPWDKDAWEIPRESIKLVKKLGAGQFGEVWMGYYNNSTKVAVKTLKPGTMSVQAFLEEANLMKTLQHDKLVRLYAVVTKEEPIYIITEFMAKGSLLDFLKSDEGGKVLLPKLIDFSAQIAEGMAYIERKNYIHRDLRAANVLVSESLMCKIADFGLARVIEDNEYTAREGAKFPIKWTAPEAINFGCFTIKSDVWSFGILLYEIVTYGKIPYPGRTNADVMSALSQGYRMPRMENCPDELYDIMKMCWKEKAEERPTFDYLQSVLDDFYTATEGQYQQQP
Ret(h), sequence (P07949 29-1114): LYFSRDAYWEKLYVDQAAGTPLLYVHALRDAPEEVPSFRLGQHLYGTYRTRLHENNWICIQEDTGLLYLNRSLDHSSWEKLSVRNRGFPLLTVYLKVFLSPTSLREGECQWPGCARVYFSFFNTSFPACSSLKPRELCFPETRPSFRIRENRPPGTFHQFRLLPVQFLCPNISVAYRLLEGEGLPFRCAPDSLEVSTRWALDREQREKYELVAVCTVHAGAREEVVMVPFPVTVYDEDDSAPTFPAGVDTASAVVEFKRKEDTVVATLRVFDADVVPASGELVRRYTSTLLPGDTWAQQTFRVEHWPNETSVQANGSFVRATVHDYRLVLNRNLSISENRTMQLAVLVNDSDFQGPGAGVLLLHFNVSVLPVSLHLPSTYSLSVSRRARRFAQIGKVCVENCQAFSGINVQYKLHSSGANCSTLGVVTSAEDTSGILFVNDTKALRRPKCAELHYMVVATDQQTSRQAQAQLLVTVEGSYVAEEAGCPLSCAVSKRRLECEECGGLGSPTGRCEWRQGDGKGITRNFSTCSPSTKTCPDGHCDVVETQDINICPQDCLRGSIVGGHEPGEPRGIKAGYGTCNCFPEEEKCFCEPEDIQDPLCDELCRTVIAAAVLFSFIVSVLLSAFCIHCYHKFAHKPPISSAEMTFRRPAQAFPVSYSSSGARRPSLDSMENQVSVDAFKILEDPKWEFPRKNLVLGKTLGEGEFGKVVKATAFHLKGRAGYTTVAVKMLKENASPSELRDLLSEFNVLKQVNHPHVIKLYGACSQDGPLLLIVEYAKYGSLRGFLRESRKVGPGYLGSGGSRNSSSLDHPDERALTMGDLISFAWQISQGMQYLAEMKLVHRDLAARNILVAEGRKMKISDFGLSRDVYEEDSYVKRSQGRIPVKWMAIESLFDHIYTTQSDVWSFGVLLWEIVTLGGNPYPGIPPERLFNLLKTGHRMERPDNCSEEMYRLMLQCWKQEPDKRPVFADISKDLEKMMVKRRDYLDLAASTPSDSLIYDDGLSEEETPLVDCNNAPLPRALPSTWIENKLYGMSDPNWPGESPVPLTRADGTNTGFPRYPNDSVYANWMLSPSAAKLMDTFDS
Rsk2(h), sequence (P51812 whole entry): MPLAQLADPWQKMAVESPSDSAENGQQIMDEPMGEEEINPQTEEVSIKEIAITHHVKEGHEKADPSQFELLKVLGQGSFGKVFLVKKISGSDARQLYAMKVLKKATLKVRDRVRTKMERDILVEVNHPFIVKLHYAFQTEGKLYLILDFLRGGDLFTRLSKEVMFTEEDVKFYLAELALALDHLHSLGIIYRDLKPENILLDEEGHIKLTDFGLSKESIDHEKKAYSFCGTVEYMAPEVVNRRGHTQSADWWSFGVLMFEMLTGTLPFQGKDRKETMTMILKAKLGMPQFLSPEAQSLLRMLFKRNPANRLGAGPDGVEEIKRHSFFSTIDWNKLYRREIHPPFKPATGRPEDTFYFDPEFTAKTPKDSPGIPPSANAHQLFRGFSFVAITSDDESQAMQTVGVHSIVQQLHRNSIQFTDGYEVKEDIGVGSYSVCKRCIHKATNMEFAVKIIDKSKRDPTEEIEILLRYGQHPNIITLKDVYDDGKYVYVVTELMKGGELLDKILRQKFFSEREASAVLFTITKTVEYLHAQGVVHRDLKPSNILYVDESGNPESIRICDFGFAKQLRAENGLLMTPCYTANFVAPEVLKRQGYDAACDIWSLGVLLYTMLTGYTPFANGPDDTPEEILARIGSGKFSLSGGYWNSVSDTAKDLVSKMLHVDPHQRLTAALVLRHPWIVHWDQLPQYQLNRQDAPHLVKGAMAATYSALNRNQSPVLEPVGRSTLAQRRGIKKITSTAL

SMILES: CC(C)CCC(=O)[C@]1(O)C(O)=C(C(=O)C(C)C)C(=O)[C@H]1CCC(C)C [TH2, tetrahydroiso-cohumulone]
- kinase inhibition ([1]; 1 μg/ml): 96% of control
- kinase inhibition ([1]; 5 μg/ml): 96% of control
- kinase inhibition ([1]; 25 μg/ml): 66% of control
- kinase inhibition ([1]; 50 μg/ml): 68% of control
- kinase inhibition ([1]; 100 μg/ml): 47% of control
- kinase inhibition ([2]; 25 μg/ml): 110% of control
- kinase inhibition ([2]; 50 μg/ml): 110% of control
- kinase inhibition ([2]; 100 μg/ml): 100% of control
- kinase inhibition ([3]; 1 μg/ml): 110% of control
- kinase inhibition ([3]; 5 μg/ml): 102% of control
- kinase inhibition ([3]; 25 μg/ml): 104% of control
- kinase inhibition ([3]; 50 μg/ml): 91% of control
- kinase inhibition ([3]; 100 μg/ml): 88% of control
- kinase inhibition ([4]; 1 μg/ml): 116% of control
- kinase inhibition ([4]; 5 μg/ml): 110% of control
- kinase inhibition ([4]; 25 μg/ml): 76% of control
- kinase inhibition ([4]; 50 μg/ml): 58% of control
- kinase inhibition ([4]; 100 μg/ml): 68% of control
- kinase inhibition ([5]; 1 μg/ml): 112% of control
- kinase inhibition ([5]; 5 μg/ml): 116% of control
- kinase inhibition ([5]; 25 μg/ml): 114% of control
- kinase inhibition ([5]; 50 μg/ml): 88% of control
- kinase inhibition ([5]; 100 μg/ml): 63% of control
- kinase inhibition ([6]; 1 μg/ml): 95% of control
- kinase inhibition ([6]; 5 μg/ml): 100% of control
- kinase inhibition ([6]; 25 μg/ml): 72% of control
- kinase inhibition ([6]; 50 μg/ml): 42% of control
- kinase inhibition ([6]; 100 μg/ml): 19% of control
- kinase inhibition ([7]; 1 μg/ml): 112% of control
- kinase inhibition ([7]; 5 μg/ml): 115% of control
- kinase inhibition ([7]; 25 μg/ml): 101% of control
- kinase inhibition ([7]; 50 μg/ml): 100% of control
- kinase inhibition ([7]; 100 μg/ml): 68% of control
- kinase inhibition ([8]; 1 μg/ml): 102% of control
- kinase inhibition ([8]; 5 μg/ml): 100% of control
- kinase inhibition ([8]; 25 μg/ml): 81% of control
- kinase inhibition ([8]; 50 μg/ml): 43% of control
- kinase inhibition ([8]; 100 μg/ml): 32% of control
- kinase inhibition ([9]; 1 μg/ml): 108% of control
- kinase inhibition ([9]; 5 μg/ml): 107% of control
- kinase inhibition ([9]; 25 μg/ml): 97% of control
- kinase inhibition ([9]; 50 μg/ml): 86% of control
- kinase inhibition ([9]; 100 μg/ml): 70% of control
